Two compounds from patent US11673889B2, “Substituted imidazo[4,5-c][1,8]naphthyridines as phosphodiesterase inhibitors” (Nanjing Zhengxiang Pharmaceuticals Co., Ltd., priority 2019, dated 2023) can be followed below.

Series [1] can be described thus: Liver microsome stability, mouse. Format: in vitro ADME. How it is done:
(§1) Liver microsome assay was used to evaluate the metabolic stability of I-VI. The test article at the concentration of […] was incubated with 0.5 mg/mL liver microsome in the presence of NADPH and UDPGA as the co-factors for 0, 15, 30, 45 and 60 minutes. The incubation was carried out at 37° C. with 5% CO2 and saturating humidity. Disappearance of the test article was monitored by LC/MS/MS. the disappearance half-life (t1/2), intrinsic clearance and hepatic extraction ratio were determined.
(In general: Liver microsomes are a subcellular fraction often used to study metabolism.)

Series [2] can be described thus: Liver microsome stability, human. In kind it is in vitro ADME. How it is done: as §1
A further series addresses T1, ENPP-1, Saos-2 cells (Homo sapiens, UniProt P22413).
T1 construct: ENPP-1 were mainly expressed on the surface of cell membrane; endogenous in cells; host or cells: Saos-2
T1 sequence (P22413 1-925): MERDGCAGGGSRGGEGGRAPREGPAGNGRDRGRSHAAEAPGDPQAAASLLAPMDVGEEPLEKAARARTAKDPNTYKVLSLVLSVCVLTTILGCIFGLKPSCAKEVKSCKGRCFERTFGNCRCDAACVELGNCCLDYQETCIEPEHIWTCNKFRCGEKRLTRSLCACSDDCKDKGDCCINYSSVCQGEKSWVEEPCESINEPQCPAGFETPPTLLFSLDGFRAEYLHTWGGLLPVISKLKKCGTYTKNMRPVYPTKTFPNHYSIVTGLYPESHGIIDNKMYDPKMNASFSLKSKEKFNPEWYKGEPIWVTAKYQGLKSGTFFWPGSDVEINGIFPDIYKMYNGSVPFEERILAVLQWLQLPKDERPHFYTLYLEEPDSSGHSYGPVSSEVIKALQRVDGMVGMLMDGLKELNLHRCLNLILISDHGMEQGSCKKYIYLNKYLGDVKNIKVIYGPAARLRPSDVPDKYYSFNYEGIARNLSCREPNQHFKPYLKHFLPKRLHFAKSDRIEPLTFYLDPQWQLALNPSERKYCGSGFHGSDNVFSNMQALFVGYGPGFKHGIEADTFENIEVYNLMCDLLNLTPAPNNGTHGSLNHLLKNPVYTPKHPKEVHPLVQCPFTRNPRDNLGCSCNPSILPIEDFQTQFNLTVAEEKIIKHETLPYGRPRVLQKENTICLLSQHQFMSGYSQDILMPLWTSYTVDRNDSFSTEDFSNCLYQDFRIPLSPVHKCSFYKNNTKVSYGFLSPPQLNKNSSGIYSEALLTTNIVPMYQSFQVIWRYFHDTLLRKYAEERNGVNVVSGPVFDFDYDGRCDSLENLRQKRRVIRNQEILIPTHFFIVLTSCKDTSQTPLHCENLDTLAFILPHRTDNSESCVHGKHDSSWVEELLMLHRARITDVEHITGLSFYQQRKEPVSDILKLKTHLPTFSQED
As to the kind of experiment: Cellular enzymatic assay of ENPP-1 inhibitors using TMP-pNP as substrate, Saos-2 cells. In kind it is cell-based. How it is done:
(§2) ENPP-1 were mainly expressed on the surface of cell membrane where it hydrolytes 2′3′-cGAMP to generate 5′-GMP and 5′-AMP. ENPP-1 also has the ability to hydrolyzes artificial phosphoric acid ester TMP-pNP to nucleotide-5′-monophosphate and p-nitrophcnol there, which is a chromogenic product.
(§3) 8 point of different concentrations of each inhibitor were prepared with the final assay concentrations starting at 20 μM. 3× series dilution by DMEM medium without FBS was applied. Prior to adding inhibitors, 75000 cells per well were incubated at 37° C., 5% CO2 in DMEM for 24 hours. After removing the supernatant medium, 50 μL inhibitor solution was added into each well with cultured cells and incubate at 37° C., 5% CO2 for 60 minutes.
(§4) The IC50 values for percent inhibition versus compound concentration are determined by fitting the inhibition curves using a four-parameter variable slope model in GraphPad Prism® 8.

The target of another series is T2, ENPP-1, HEK293 cells (Homo sapiens, UniProt P22413).
T2 construct: ENPP-1 were mainly expressed on the surface of cell membrane; endogenous in cells; host or cells: HEK293
T2 sequence (P22413 1-925): T1 sequence (P22413 1-925)
As to the kind of experiment: Cellular enzymatic assay of ENPP-1 inhibitors using TMP-pNP as substrate, HEK 293 cells. Format: cell-based. The following applies: for inhibition at 20 µM: HEK293, HEK 293 cells, read-out: Inhibition (at 20 μM). How it is done:
as §2, §3, §4

As a reminder, the IC50 is the midpoint of a concentration-inhibition curve. Lower therefore signals greater potency in that assay. Broadly, the inhibition is the share of the control response that was lost under treatment. As for `COc1cc2ncc3ncn(Cc4ccc(S(N)(=O)=O)cn4)c3c2cc1OC` [Compound 12, 6-((7,8-dimethoxy-1H-imidazo[4,5-c]quinolin-1-yl)methyl)pyridine-3-sulfonamide], the “Hepatic extraction ratio Re” value is 0.20 in series [1] (Mouse liver microsome) and 0.14 in series [2] (Human liver microsome). The half-life in series [1] (liver microsomes, Mouse liver microsome 0.5 mg/mL, NADPH and UDPGA, 37° C., read-out: Half-life t1/2) is 3.95 h; in series [2] (liver microsomes, Human liver microsome 0.5 mg/mL, NADPH and UDPGA, 37° C., read-out: Half-life t1/2), 8.27 h. The microsomal CLint worked out at 5.9 µL/min/mg in series [1] (liver microsomes, Mouse liver microsome, read-out: Intrinsic clearance Cl′int, (μL/min/mg protein)) and 2.8 µL/min/mg in series [2] (liver microsomes, Human liver microsome, read-out: Intrinsic clearance Cl′int, (μL/min/mg protein)). Further, the IC50 at ENPP-1, Saos-2 cells came to 1000 nM; at ENPP-1, HEK293 cells, 2300 nM. Moreover, the inhibition at 20 µM at ENPP-1, Saos-2 cells (Saos-2 cells, @20 μM, read-out: % Inhibition (@20 μM)) was 87%; at ENPP-1, HEK293 cells, 85%.

Consider `COc1ccc2c(ncc3nc(C)n(Cc4ccc(S(N)(=O)=O)cc4)c32)n1` [Compound 48, 4-((7-methoxy-2-methyl-1H-imidazo[4,5-c][1,8]naphthyridin-1-yl)methyl)benzenesulfonamide], for which, at ENPP-1, HEK293 cells, the IC50 amounted to 670 nM and the inhibition at 20 µM was determined as 95%.
